Reference: article PMC12261228 (ACS Pharmacology & Translational Science, 2025)
Where two headings read alike, the source gives them in different places.

Key:
CCRF-CEM = assay: MTS cytotoxicity assay, 72 h; format: cell-based
CEM-DNR = assay: MTS cytotoxicity assay, 72 h; format: cell-based; details: Homo sapiens, read-out: IC50 CEM-DNR
K562 = assay: MTS cytotoxicity assay, 72 h; format: cell-based; details: Homo sapiens, K562, 72 h, read-out: IC50 K562
K562-TAX = assay: MTS cytotoxicity assay, 72 h; format: cell-based; details: read-out: IC50 K562-TAX
HCT116 = assay: MTS cytotoxicity assay, 72 h; format: cell-based; details: Homo sapiens, HCT-116, 72 h, read-out: IC50 HCT116
HCT116p53–/– = assay: MTS cytotoxicity assay, 72 h; format: cell-based; details: read-out: IC50 HCT116p53–/–
U2OS = assay: MTS cytotoxicity assay, 72 h; format: cell-based, human; details: Homo sapiens, U2OS, 72 h
MRC-5 = assay: MTS cytotoxicity assay, 72 h; format: cell-based; details: Homo sapiens, MRC5, 72 h, read-out: IC50 MRC-5
BJ = assay: MTS cytotoxicity assay, 72 h; format: cell-based; details: Homo sapiens, read-out: IC50 BJ
A549 = assay: MTS cytotoxicity assay, 72 h; format: cell-based; details: Homo sapiens, Fig. S22
Method: Cell suspensions were prepared and diluted according to the particular cell type and the expected target cell density (500 – 4,000 cells/well). The cells (30 μL/well) were seeded to 384-well clear Corning plates by MultiDrop Combi (Thermo Fisher Scientific, USA). After 24 h the cells were treated with tested compounds as well as with vehicle (DMSO) and high controls (2.67 μM of Actinomycin D and 100 μM Mitomycin C) using contact-free acoustic liquid handler ECHO 555 (Labcyte, USA). Compounds were analyzed at a concentration range from 0.012 μM to 50 μM. Treated cells were incubated at 37 °C in a 5% CO2 atmosphere of a humidified incubator for 72 h. At the end of the incubation period, aliquots of the MTS (Promega) solution prepared according to manufacturer's instructions were added to cells (https://worldwide.promega.com/resources/protocols/technical-bulletins/0/celltiter-96-aqueous-nonradioactive-cell-proliferation-assay-protocol/). After 1 – 4 h of the incubation period, the optical density (OD) at 490 nm was measured on a multimode plate reader EnVision (PerkinElmer, USA). The experiments were performed in technical duplicates and at least three biological replicates. […] The assay quality was monitored by determining the Z′-factor for each 384-well plate. The resistance index (RI), representing the reduction in compound activity on resistant cell lines, was calculated as RI = (IC50 of resistant cell lines, CEM-DNR, K562-TAX)/(IC50 of nonresistant counterparts, CCRF-CEM, K562). Similarly, the selectivity index (SI), indicating preferential cytotoxicity toward tumor cell lines, was calculated as SI = (mean IC50 of nontumor cell lines, BJ and MRC5)/(mean IC50 of cancer cell lines without resistant variants, CCRF-CEM, K562, HCT116, HCT116p53–/–, U2OS).

HUVEC = assay: MTS cytotoxicity assay, 72 h; format: cell-based; details: Homo sapiens, 3-day incubation, mean ± SD
CCRF-CEM lymphoblasts = assay: FACS analysis of cell cycle, apoptosis, mitosis and polyploidy; details: for Mitosis: phospho-Histone (Ser10); for Apoptosis: sub-G0/G1 DNA content, % of positive cells
[1] = Homo sapiens, CCRF-CEM, 72 h, MTS assay, 3-day incubation, mean ± SD of 3 experiments, read-out: IC50 CCRF-CEM
[2] = MTS assay, 3-day incubation, mean ± SD
[3] = MTS assay, 3-day incubation, mean ± SD, read-out: IC50 U2OS
[4] = normal fibroblasts, MTS assay, 3-day incubation, mean ± SD
[5] = Homo sapiens, CCRF-CEM, 72 h, read-out: IC50 CCRF-CEM, MTS assay, 3-day incubation, mean ± SD of 3 experiments
[6] = read-out: IC50 U2OS, MTS assay, 3-day incubation, mean ± SD

Row | SMILES | IC50 (CCRF-CEM; [1]) | IC50 (K562; [2]) | IC50 (HCT116; [2]) | IC50 (HCT116p53–/–; [2]) | IC50 (U2OS; [3]) | IC50 (MRC-5; [4]) | IC50 (BJ; [4]) | IC50 (A549) | IC50 (CCRF-CEM; [5]) | IC50 (CEM-DNR) | IC50 (K562) | IC50 (K562-TAX) | IC50 (HCT116) | IC50 (HCT116p53–/–) | IC50 (U2OS; [6]) | IC50 (MRC-5) | IC50 (BJ) | IC50 (HUVEC) | RI (resistance index) (panel of cell lines) | SI (selectivity index) (panel of cell lines) | further results
1 | C#CCCCC1=C2C(C)=CC(C)=[N+]2[B-](F)(F)n2c(C)cc(C)c21 [B9] | > 50 µM | > 50 µM | > 50 µM | > 50 µM | > 50 µM | > 50 µM | > 50 µM | > 50 µM |  |  |  |  |  |  |  |  |  |  |  |  | IC50 (CEM-DNR; daunorubicin-resistant, MTS assay, 3-day incubation, mean ± SD): > 50 µM; IC50 (K562-TAX; paclitaxel-resistant, MTS assay, 3-day incubation, mean ± SD): > 50 µM
2 | COc1cc2c(c(OC)c1OC)-c1ccc(OC)c(=O)cc1[C@@H](NC(=O)CCCC[N+](C)(C)CCCCC1=C3C(C)=CC(C)=[N+]3[B-](F)(F)n3c(C)cc(C)c31)CC2 [CB3] |  |  |  |  |  |  |  |  | 9.33 ± 0.952 µM | > 50 µM | 9.5 ± 2.37 µM | 40.1 ± 1.07 µM | 31.6 ± 4.54 µM | 36.4 ± 5.03 µM | > 50 µM | > 50 µM | > 50 µM | > 50 µM | >4.79 | >1.83 | cytotoxic activity across the cell line panel (in words) (panel of cell lines): significantly lower; apoptosis in CCRF-CEM cells (CCRF-CEM lymphoblasts; 1× and 5 × IC50, compared with DMSO): 20%; G0/G1 (CCRF-CEM lymphoblasts; 1×IC50, 24 h): 2.89%; G2/M (CCRF-CEM lymphoblasts; 1×IC50, 24 h): 79.08%; Polyploid cells (CCRF-CEM lymphoblasts; 1×IC50, 24 h): 26.03%; S (CCRF-CEM lymphoblasts; 1×IC50, 24 h): 18.03%; Mitosis (CCRF-CEM lymphoblasts; 1×IC50, 24 h): 58.58%; Apoptosis (CCRF-CEM lymphoblasts; 1×IC50, 24 h): 16.41%; G0/G1 (CCRF-CEM lymphoblasts; 5×IC50, 24 h): 7.84%; G2/M (CCRF-CEM lymphoblasts; 5×IC50, 24 h): 84.01%; Polyploid cells (CCRF-CEM lymphoblasts; 5×IC50, 24 h): 26.25%; S (CCRF-CEM lymphoblasts; 5×IC50, 24 h): 8.15%; Mitosis (CCRF-CEM lymphoblasts; 5×IC50, 24 h): 57.12%; Apoptosis (CCRF-CEM lymphoblasts; 5×IC50, 24 h): 20.64%
3 | COc1cc2c(c(OC)c1OC)-c1ccc(NCCCCC3=C4C(C)=CC(C)=[N+]4[B-](F)(F)n4c(C)cc(C)c43)c(=O)cc1[C@@H](NC(C)=O)CC2 [CB10] |  |  |  |  |  |  |  |  | 7.13 µM | 11.1 ± 0.959 µM | 10.8 ± 0.431 µM | 14.8 ± 2.94 µM | 35.8 ± 5.91 µM | > 50 µM | > 50 µM | > 50 µM | > 50 µM | 32.3 ± 0.42 µM | 1.45 | >1.63 | IC50 (CCRF-CEM; read-out: IC50 CCRF-CEM, MTS assay, 3-day incubation, mean ± SD of 3 experiments): 7.11 ± 0.651 µM; cytotoxic activity across the cell line panel (in words) (panel of cell lines): significantly lower; G0/G1 (CCRF-CEM lymphoblasts; 1×IC50, 24 h): 34.04%; G2/M (CCRF-CEM lymphoblasts; 1×IC50, 24 h): 26.65%; Polyploid cells (CCRF-CEM lymphoblasts; 1×IC50, 24 h): 12.43%; S (CCRF-CEM lymphoblasts; 1×IC50, 24 h): 39.32%; Mitosis (CCRF-CEM lymphoblasts; 1×IC50, 24 h): 2.86%; Apoptosis (CCRF-CEM lymphoblasts; 1×IC50, 24 h): 3.87%; G0/G1 (CCRF-CEM lymphoblasts; 5×IC50, 24 h): 8.21%; G2/M (CCRF-CEM lymphoblasts; 5×IC50, 24 h): 62.62%; Polyploid cells (CCRF-CEM lymphoblasts; 5×IC50, 24 h): 25.51%; S (CCRF-CEM lymphoblasts; 5×IC50, 24 h): 29.17%; Mitosis (CCRF-CEM lymphoblasts; 5×IC50, 24 h): 36.02%; Apoptosis (CCRF-CEM lymphoblasts; 5×IC50, 24 h): 11.26%
4 | CC1=CC(C)=[N+]2C1=C(CCCCCCCCCCC(=O)O)c1c(C)cc(C)n1[B-]2(F)F [B2] | > 50 µM | > 50 µM | > 50 µM | > 50 µM | > 50 µM | > 50 µM | > 50 µM | > 50 µM |  |  |  |  |  |  |  |  |  |  |  |  | 
5 | COc1cc2c(c(OC)c1OC)-c1ccc(OC)c(=O)cc1[C@@H](n1cc(CCCCCCCCC3=C4C(C)=CC(C)=[N+]4[B-](F)(F)n4c(C)cc(C)c43)[n+](C)n1)CC2 [CB8] |  |  |  |  |  |  |  |  | 7.11 ± 1.14 µM | 6.53 ± 0.458 µM | 7.83 ± 0.892 µM | 6.35 ± 0.335 µM | 8.81 ± 1.94 µM | 9.36 ± 0.87 µM | 11.9 ± 1.11 µM | 22.1 ± 1.22 µM | 36.9 ± 5.68 µM | 23.5 ± 1.29 µM | 0.86 | 3.28 | G0/G1 (CCRF-CEM lymphoblasts; 1×IC50, 24 h): 8.68%; G2/M (CCRF-CEM lymphoblasts; 1×IC50, 24 h): 80.01%; Polyploid cells (CCRF-CEM lymphoblasts; 1×IC50, 24 h): 23.43%; S (CCRF-CEM lymphoblasts; 1×IC50, 24 h): 11.31%; Mitosis (CCRF-CEM lymphoblasts; 1×IC50, 24 h): 5.79%; Apoptosis (CCRF-CEM lymphoblasts; 1×IC50, 24 h): 11.09%; G0/G1 (CCRF-CEM lymphoblasts; 5×IC50, 24 h): 9.49%; G2/M (CCRF-CEM lymphoblasts; 5×IC50, 24 h): 87.34%; Polyploid cells (CCRF-CEM lymphoblasts; 5×IC50, 24 h): 20.18%; S (CCRF-CEM lymphoblasts; 5×IC50, 24 h): 3.17%; Mitosis (CCRF-CEM lymphoblasts; 5×IC50, 24 h): 13.33%; Apoptosis (CCRF-CEM lymphoblasts; 5×IC50, 24 h): 3.98%
6 | CC1=CC(C)=[N+]2C1=C(CCC(=O)O)c1c(C)cc(C)n1[B-]2(F)F [B1] | > 50 µM | > 50 µM | > 50 µM | > 50 µM | > 50 µM | > 50 µM | > 50 µM | > 50 µM |  |  |  |  |  |  |  |  |  |  |  |  | 
